# Reference: patent US20230165853A1, “METHOD FOR TREATING CHRONIC KIDNEY DISEASES” (ENYO PHARMA, priority 2021, published 2023)
# “And” between values parts separate entries of the source, which are not always exact repeats. Equal values may be shown once. “Also recorded” adds a separate entry of the source. Marks after values point to notes of the source that are not given here.
# Key:
# Nx mice [1] = experiment: Subtotal nephrectomy (Nx) mouse model of CKD, curative study, interstitial fibrosis by PSR (Example 2); assay type: in vivo; conditions: initiated 5 weeks after Nx
# Source text: Analysis has been focused on an experimental model of CKD, i.e. the subtotal nephrectomy (Nx). In this model, a “curative study” was investigated, i.e. treatments have been initiated 5 weeks after Nx, when lesions are already developed.
# 54 nine-week old FVB female mice have been investigated, of which 6 have been submitted to sham operation (controls) and 48 to subtotal nephrectomy (Nx), which consist in the excision of the right kidney and the two poles of the left kidney to reach 75% reduction of total renal mass. Surgery was performed under xylazine (Rompun 2%; Bayer, Leverkusen, France) (6 μg/g of body weight) and ketamine (Clorketam 1000; Vetoquinol SA, Lirre, France) (120 μg/g of body weight) anesthesia. […]
# Kidneys were fixed in 4% paraformaldehyde, paraffin embedded, and 4-μm sections were stained with picrosirius red (PSR). […] All sections were evaluated by a pathologist who was blinded to the treatment groups.
# (§1) Staining of all kidney samples with picrosirius red (PSR) was performed, and red intensity above a defined threshold was defined as fibrosis. For interstitial fibrosis, at least 10 to 15 random selected fields (magnification ×200) across the corticomedullary junction were analyzed per each kidney section, and the results were expressed as percentages of the total area of the selected fields.
# NASH patients = experiment: Randomized, double-blind, placebo-controlled Livify NASH trial (Phase 2a); assay type: in vivo, human; conditions: for ALT, absolute change (IU/L) / Alpha-2-Macroglobulin, absolute change (mg/dL) / Body Weight, absolute change (kg) / Change Relative LFC, % / GGT, absolute change (IU/L) / Waist-to-Hip Ratio, absolute change / cT1, absolute change (msec) / eGFR, absolute change (mL/min/1.73 m^2) / Change Absolute LFC, %: change from baseline to W12, mean (SD); for Change Absolute LFC, %: MRI-PDFF
# Method: Vonafexor has anti-fibrotic effects in NASH and Chronic Kidney Disease (CKD) models. Up to 64% of NASH patients have decreased estimated glomerular filtration rate (eGFR <90 mL/min/1.73 m^2) which can evolve into CKD. […] 96 patients were randomized 1:1:1 to daily oral Placebo (PBO, n=32) or VONA (Vonafexor) 100 mg (n=31) or 200 mg (n=33) for 12 weeks (W12). Inclusion criteria required phenotypic stage 2 or 3 fibrosis NASH with an absolute liver fat content (LFC by MRI-PDFF) ≥10% and liver stiffness by transient elastography [LSTE]≥8.5 kPa or previous biopsy-proven NASH. Randomization was stratified by diabetes and LFC.
# [2] = system: FXR target genes (OSTA and OSTB); experiment: Renal OSTA and OSTB mRNA levels by quantitative RT-PCR in Nx mice (Example 1); assay type: in vivo, mouse; conditions: Nx mice kidneys
# Method: Mice were subjected to a subtotal nephrectomy (Nx). Treatments were initiated 5 weeks after Nx for a duration of 3 weeks. Kidneys were collected at sacrifice, and OSTA and OSTB mRNA levels were assessed by quantitative RT-PCR. p-values are indicated on the graphs.
# (§2) Analysis has been focused on an experimental model of CKD, i.e. the subtotal nephrectomy (Nx). In this model, a “curative study” was investigated, i.e. treatments have been initiated 5 weeks after Nx, when lesions are already developed. 42 nine-week old FVB female mice have been investigated, of which 6 have been submitted to sham operation (controls) and 36 to subtotal nephrectomy (Nx), which consist in the excision of the right kidney and the two poles of the left kidney to reach 75% reduction of total renal mass. Surgery was performed under xylazine (Rompun 2%; Bayer, Leverkusen, France) (6 μg/g of body weight) and ketamine (Clorketam 1000; Vetoquinol SA, Lirre, France) (120 μg/g of body weight) anesthesia.
# After 5 weeks, mice have been divided into 4 groups: • Sham mice treated with the vehicle (n=6) • Nx mice treated with the vehicle (n=10) • Nx mice treated with dEF2572 FXR agonist (4-bromo-5-[4-(2,6-dichloro-benzenesulfonyl)-piperazin-1-yl]-benzofuran-2-carboxylic acid) at 100 mg/Kg/day (n=11) • Nx mice treated with Nidufexor (LMB763) FXR agonist at 30 mg/Kg/day (n=10) […]
# Nx mice [3] = experiment: Subtotal nephrectomy (Nx) mouse model of CKD, curative study, renal histopathology (Example 1); assay type: in vivo
# Source text: as §2
# After 5 weeks, mice have been divided into 4 groups: • Sham mice treated with the vehicle (n=6) • Nx mice treated with the vehicle (n=10) • Nx mice treated with dEF2572 FXR agonist (4-bromo-5-[4-(2,6-dichloro-benzenesulfonyl)-piperazin-1-yl]-benzofuran-2-carboxylic acid) at 100 mg/Kg/day (n=11) • Nx mice treated with Nidufexor (LMB763) FXR agonist at 30 mg/Kg/day (n=10)
# Compounds have been administered once a day (QD) per oral gavage.
# Mice have been sacrificed 3 weeks later. Blood has been collected just before sacrifice. At sacrifice, kidneys have been harvested for morphological and mRNA analyses.
# Kidneys were fixed in 4% paraformaldehyde, paraffin embedded, and 4-μm sections were stained with Periodic acid-Schiff (PAS), Masson's trichrome, Hematoxylin and eosin, and picrosirius red (PSR). Images were acquired using a Nikon Digital Camera Dx/m/1200. All sections were evaluated by a pathologist who was blinded to the treatment groups.
# The degree of glomerular lesions was evaluated on Periodic acid-Schiff (PAS) staining using a semi-quantitative score methodology. Briefly, 40-60 glomeruli per mouse were scored at a magnification of ×400, using the following scoring system: 0=no lesion, 1=mild sclerosis, interesting 10-25% of the glomerulus, 2=moderate sclerosis, interesting 25%-50% of the glomerulus, 3=severe sclerosis interesting 50%-75% of the glomerulus, and 4=global sclerosis interesting >75% of the glomerulus. The results were expressed as the mean of the scores of 40-60 glomeruli per mouse.
# as §1, with “The degree of tubular dilations was automatically quantified on PAS staining using Image J/Fiji software, version 2.1.0. The extent of interstitial fibrosis was also quantified using Image J/Fiji software. Staining” for “Staining”, “performed simultaneously,” for “performed,”, “For tubular dilations and” for “For”
# [4] = 30 mg/Kg/day QD oral gavage for 3 weeks, 30 mg/kg/day
# [5] = 100 mg/Kg/day QD oral gavage for 3 weeks, 100 mg/kg/day
# [6] = 100 mg/Kg/day QD oral gavage for 3 weeks, initiated 5 weeks after Nx
compound,measurement,setting,value
"CC[C@H]1[C@@H](O)[C@@H]2[C@H](CC[C@]3(C)[C@@H]([C@H](C)CCC(=O)O)CC[C@@H]23)[C@@]2(C)CC[C@@H](O)C[C@@H]12 [Obeticholic acid, reference compound]",renal interstitial fibrosis (picrosirius red staining positive areas),Nx mice [1]; [4],no significant effect
"O=C(O)c1cc2c(Cl)c(N3CCN(S(=O)(=O)c4c(Cl)cccc4Cl)CC3)ccc2o1 [Vonafexor, 4-chloro-5-[4-(2,6-dichloro-benzenesulfonyl)-piperazin-1-yl]-benzofuran-2-carboxylic acid]",renal interstitial fibrosis (picrosirius red staining positive areas),Nx mice [1]; [5],significantly decreases; also recorded: significantly better than OCA; also recorded: higher beneficial effects than Losartan
same,patients discontinued participation due to pruritus,NASH patients; 100 mg,9%
same,liver fibro-inflammation marker cT1 (Liver Multiscan) reduced by,"NASH patients; 100 mg arm, p<0.001 vs PBO",81 ms
same,% Patients >88 msec absolute reduction (cT1),"NASH patients; 100 mg daily oral, W12",36% *
same,% Patients with >30% absolute reduction (LFC),"NASH patients; 100 mg daily oral, W12",50% §
same,% Patients with >−17 IU/L reduction (ALT),"NASH patients; 100 mg daily oral, W12",52% §
same,% Patients with any eGFR increase,"NASH patients; 100 mg daily oral, W12",76% §
same,"ALT, absolute change (IU/L)",NASH patients; 100 mg daily oral,−19.3 (3.2) § IU/L
same,"Alpha-2-Macroglobulin, absolute change (mg/dL)",NASH patients; 100 mg daily oral,"−25.9 (4.3) #, § mg/dL"
same,"Body Weight, absolute change (kg)",NASH patients; 100 mg daily oral,"−1.7 (0.5) #,§ kg"
same,"Change Relative LFC, %",NASH patients; 100 mg daily oral,"−30.0 (4.7) #, § %"
same,"GGT, absolute change (IU/L)",NASH patients; 100 mg daily oral,"−40.6 (3.3) #, § IU/L"
same,"Waist-to-Hip Ratio, absolute change",NASH patients; 100 mg daily oral,"−0.02 (0.0) #, §"
same,"cT1, absolute change (msec)",NASH patients; 100 mg daily oral,"−80.6 (15.4) #, § msec"
same,"eGFR, absolute change (mL/min/1.73 m^2)",NASH patients; 100 mg daily oral,"+6.0 (9.5) #, § mL/min/1.73 m^2"
same,"Change Absolute LFC, %",NASH patients; 100 mg daily oral,"−6.3% and −6.3 (0.9) #, § %"
same,non-drug related severe adverse events (number),NASH patients; 100 mg group,2
same,mean improvement in eGFR,"NASH patients; 100 mg or 200 mg treated subjects, 12 weeks",+5.6 mL/min/1.73 m^2
same,patients with an eGFR increase >0.1 mL/min/1.73 m,"NASH patients; 100 mg treated subjects, 12-week treatment period",76%
same,% Patients >88 msec absolute reduction (cT1),"NASH patients; 200 mg daily oral, W12",36% *
same,% Patients with >5% absolute LFC reduction,"NASH patients; 200 mg daily oral, W12",43% §
same,% Patients with >30% absolute reduction (LFC),"NASH patients; 200 mg daily oral, W12",39% §
same,% Patients with >−17 IU/L reduction (ALT),"NASH patients; 200 mg daily oral, W12",36%
same,% Patients with any eGFR increase,"NASH patients; 200 mg daily oral, W12",65% §
same,"ALT, absolute change (IU/L)",NASH patients; 200 mg daily oral,−10.8 (3.3) IU/L
same,"Alpha-2-Macroglobulin, absolute change (mg/dL)",NASH patients; 200 mg daily oral,"−18.4 (4.5) #, § mg/dL"
same,"Body Weight, absolute change (kg)",NASH patients; 200 mg daily oral,"−2.5 (0.5) #, § kg"
same,"Change Relative LFC, %",NASH patients; 200 mg daily oral,"−25.5 (4.6) #, § %"
same,"GGT, absolute change (IU/L)",NASH patients; 200 mg daily oral,"−34.1 (3.3) #, § IU/L"
same,"Waist-to-Hip Ratio, absolute change",NASH patients; 200 mg daily oral,−0.01 (0.0)
same,"cT1, absolute change (msec)",NASH patients; 200 mg daily oral,"−71.9 (14.2) #, § msec"
same,"eGFR, absolute change (mL/min/1.73 m^2)",NASH patients; 200 mg daily oral,"+2.5 (14.5) #, § mL/min/1.73 m^2"
same,"Change Absolute LFC, %",NASH patients; 200 mg daily oral,"−5.5% and −5.5 (0.9) #, § %"
same,non-drug related severe adverse events (number),NASH patients; 200 mg group,2
same,overall safety and tolerability,"NASH patients; NASH patients, 100 mg or 200 mg daily for 12 weeks",safe and well tolerated
same,ALT increases Grade 2,"NASH patients; NASH patients, 12 weeks",No ALT increases Grade 2
same,increase in low density lipoprotein-cholesterol (LDL-C),"NASH patients; NASH patients, 12 weeks",34%
same,alpha-2-Macroglobulin (A2M) plasma levels,"NASH patients; NASH patients, reduction correlated with eGFR improvement (p<0.05)",reduced
same,mean reduction in ALT,"NASH patients; VONA treatment (dose not stated), 12 weeks",26%
same,patients achieving relative LFC reduction of >30%,"NASH patients; VONA-treated (dose not stated), W12",50%
same,mean reduction in GGT,"NASH patients; VONA-treated subjects (dose not stated), p<0.001",42%
Cn1nc(C(=O)N(Cc2ccccc2)Cc2ccc(C(=O)O)cc2)c2c1-c1cc(Cl)ccc1OC2 [Nidufexor],renal expression of FXR target genes OSTA and OSTB (mRNA),[2]; [4],strong renal FXR target engagement; also recorded: more powerful FXR agonist than the identified compounds; also recorded: significantly increase
same,interstitial fibrosis,Nx mice [3]; 30 mg/Kg/day QD oral gavage for 3 weeks (FIG. 1),no significant effect
same,"beneficial effects on the kidneys (interstitial fibrosis, tubular dilatation, glomerular lesions)","Nx mice [3]; 30 mg/Kg/day QD oral gavage for 3 weeks, initiated 5 weeks after Nx",not observed
"O=C(O)c1cc2c(Br)c(N3CCN(S(=O)(=O)c4c(Cl)cccc4Cl)CC3)ccc2o1 [dEF2572, 4-bromo-5-[4-(2,6-dichloro-benzenesulfonyl)-piperazin-1-yl]-benzofuran-2-carboxylic acid]",renal expression of FXR target genes OSTA and OSTB (mRNA),[2]; [5],strong renal FXR target engagement; also recorded: significantly increase
same,renal glomerular lesions (semi-quantitative score),Nx mice [3]; [6],significantly decreases
same,renal interstitial fibrosis (picrosirius red staining positive areas),Nx mice [3]; [6],significantly decreases
same,renal tubular dilatation (PAS staining),Nx mice [3]; [6],significantly decreases
